How the values were obtained:
[1] = system: HT29 cell line; assay: cells
Experimental: (§1) Experiments were performed in triplicate.

[2] = system: DLD1 cell line; assay: cells
Experimental: as §1

[3] = system: DV90 cell line; assay: cells; type: cell-based, human
Experimental: (§2) a. […] Experiments were performed in triplicate.

[4] = system: A549 cell line; assay: cells; type: cell-based, human; settings: 72 hours of drug exposure
Experimental: as §2

[5] = system: HOP62 cell line; assay: cells; type: cell-based, human
Experimental: as §2

[6] = system: MDA-MB-435 cell line; assay: cells
Experimental: as §1
(§3) a. In the first set of assays, ICso values were determined for each drug after 72 hours of drug exposure in each of the tumor cell lines.

[7] = system: MCF7 cell line; assay: cells
Experimental: as §1, §3

[8] = system: MDA-MB-231 cell line; assay: cells
Experimental: as §1, §3

[9] = system: non-small cell lung (A549); settings: reported in EP 610.078; cited from earlier work
[10] = system: colon (HT-29); settings: reported in EP 610.078; cited from earlier work
[11] = system: mouse leukemia (P388); settings: reported in EP 610.078; cited from earlier work
[12] = HT29, 72 hours of drug exposure
[13] = DLD1, 72 hours of drug exposure
[14] = MDA-MB-435, 72 hours of drug exposure
[15] = MCF7, 72 hours of drug exposure
[16] = MDA-MB-231, 72 hours of drug exposure

Row | Compound | IC50 [1, 12] | IC50 [2, 13] | IC50 ([3]; 72 hours of drug exposure) | IC50 [4] | IC50 ([5]; 72 hours of drug exposure) | IC50 [6, 14] | IC50 [7, 15] | IC50 [8, 16] | in vitro activity [9] | in vitro activity [10] | in vitro activity [11] | IC50 ([1]; Homo sapiens, HT-29, 72 h) | IC50 ([2]; Homo sapiens, DLD-1, 72 h) | IC50 ([3]; Homo sapiens, DV-90, 72 hours of drug exposure) | IC50 ([4]; Homo sapiens) | IC50 ([5]; Homo sapiens, HOP-62, 72 hours of drug exposure) | IC50 ([6]; Homo sapiens, MDA-MB-435, 72 h) | IC50 ([7]; Homo sapiens, MCF7, 72 h) | IC50 ([8]; Homo sapiens, MDA-MB-231, 72 h)
1 | Nc1ccn([C@@H]2O[C@H](CO)[C@@H](O)C2(F)F)c(=O)n1 [Gemcitabine] | 550 nM | 2000 nM | 400 nM | 4 nM | 750 nM | 40 nM | 900 nM | 1000 nM | – | – | – | – | – | – | – | – | – | – | –
2 | Kahalalide F | – | – | – | – | – | – | – | – | micromolar activity | micromolar activity | micromolar activity | – | – | – | – | – | – | – | –
3 | CC(=O)O[C@H]1C(=O)[C@@]2(C)[C@H]([C@H](OC(=O)c3ccccc3)[C@]3(O)C[C@H](OC(=O)[C@H](O)[C@@H](NC(=O)c4ccccc4)c4ccccc4)C(C)=C1C3(C)C)[C@]1(OC(C)=O)CO[C@@H]1C[C@@H]2O [Paclitaxel] | – | – | – | – | – | – | – | – | – | – | – | 10 nM | 40 nM | 30 nM | 7 nM | 40 nM | 25 nM | 7.5 nM | 25 nM
4 | C/C=C1\NC(=O)[C@H](Cc2ccccc2)NC(=O)[C@@H](C(C)C)NC(=O)[C@@H]([C@@H](C)CC)NC(=O)[C@H](NC(=O)[C@H](NC(=O)[C@H](CCCN)NC(=O)[C@H]2CCCN2C(=O)[C@H](NC(=O)[C@@H](NC(=O)[C@@H](NC(=O)[C@H](NC(=O)CC[C@@H](C)CC)C(C)C)[C@@H](C)O)C(C)C)C(C)C)[C@@H](C)CC)[C@@H](C)OC(=O)[C@H](C(C)C)NC1=O [PM02734, (4S)-MeHex-D-Val-L-Thr-L-Val-D-Val-D-Pro-L-Orn-D-allo-Ile-cyclo(D-allo-Thr-D-allo-Ile-D-Val-L-Phe-Z-Dhb-L-Val)] | 550 nM | 350 nM | 300 nM | 200 nM | 4000 nM | 500 nM | 600 nM | 6500 nM | – | – | – | – | – | – | – | – | – | – | –
5 | N.N.[Cl][Pt][Cl] [Cisplatin] | 6600 nM | 24800 nM | 16500 nM | 8250 nM | 8250 nM | 2640 nM | 16500 nM | 8250 nM | – | – | – | – | – | – | – | – | – | – | –
